Several values for one entry are separate records, joined by “and”; a condition that tells them apart may be missing. Equal entries are not always repeated. Inconclusive results and toxic doses are left out.
Tested on: BDF1 mice, P388 leukemia ip, median survival T/C
Test: NCI In Vivo Anticancer Drug Screen. Data for tumor model P388 Leukemia (intraperitoneal) in B6D2F1 (BDF1) mice
Conditions: endpoint: median survival time, higher = longer survival
How it was run: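 In tumour-bearing mice, survival after compound treatment is set against the vehicle group and given as a quotient.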

[1] = dose: 100.0 mg/kg/injection, schedule: Q01DX009 (ip), vehicle: saline with Tween-80
[2] = dose: 50.0 mg/kg/injection, schedule: Q01DX009 (ip), vehicle: saline with Tween-80
[3] = dose: 200.0 mg/kg/injection, schedule: Q01DX009 (ip), vehicle: saline with Tween-80
[4] = dose: 3.12 mg/kg/injection, schedule: Q01DX009 (ip), vehicle: saline with Tween-80
[5] = dose: 12.5 mg/kg/injection, schedule: Q01DX009 (ip), vehicle: saline with Tween-80
[6] = dose: 25.0 mg/kg/injection, schedule: Q01DX009 (ip), vehicle: saline with Tween-80
[7] = dose: 6.25 mg/kg/injection, schedule: Q04DX003 (ip), vehicle: saline with Tween-80
[8] = dose: 12.5 mg/kg/injection, schedule: Q04DX003 (ip), vehicle: saline with Tween-80
[9] = dose: 25.0 mg/kg/injection, schedule: Q04DX003 (ip), vehicle: saline with Tween-80
[10] = dose: 100.0 mg/kg/injection, schedule: Q04DX003 (ip), vehicle: saline with Tween-80
[11] = dose: 50.0 mg/kg/injection, schedule: Q04DX003 (ip), vehicle: saline with Tween-80
[12] = dose: 200.0 mg/kg/injection, schedule: Q04DX003 (ip), vehicle: saline with Tween-80
[13] = dose: 400.0 mg/kg/injection, schedule: Q04DX003 (ip), vehicle: saline with Tween-80
[14] = dose: 100.0 mg/kg/injection, schedule: Q01DX009 (ip), vehicle: saline
[15] = dose: 100.0 mg/kg/injection, schedule: Q04DX003 (ip), vehicle: saline
[16] = dose: 200.0 mg/kg/injection, schedule: Q01DX009 (ip), vehicle: saline
[17] = dose: 200.0 mg/kg/injection, schedule: Q04DX003 (ip), vehicle: saline
[18] = dose: 400.0 mg/kg/injection, schedule: Q04DX003 (ip), vehicle: saline
[19] = dose: 6.25 mg/kg/injection, schedule: Q01DX009 (ip), vehicle: saline with Tween-80

## O=[N+]([O-])c1ccc2c(N=Nc3c(O)ccc4ccccc34)c(O)cc(S(=O)(=O)O)c2c1
dose: 25.0 mg/kg/injection, schedule: Q01DX001 (ip), vehicle: saline with Tween-80
  T/C: 104 % of control
dose: 50.0 mg/kg/injection, schedule: Q01DX001 (ip), vehicle: saline with Tween-80
  T/C: 100 % of control
dose: 100.0 mg/kg/injection, schedule: Q01DX001 (ip), vehicle: saline with Tween-80
  T/C: 100 % of control
[1]
  T/C: 104 % of control
dose: 400.0 mg/kg/injection, schedule: Q01DX009 (ip), vehicle: saline with Tween-80
  T/C: 100 % of control

## COC(=O)CC12CC3(C)CC(C)(C1)CC(CC(=O)OC)(C3)C2
[2]
  T/C: 102 % of control
[1]
  T/C: 102 % of control
[3]
  T/C: 117 % of control

## OCC1C(CO)C2(Cl)C(Cl)=C(Cl)C1(Cl)C2(Cl)Cl (stereo not drawn)
dose: 100.0 mg/kg/injection, schedule: Q01DX009 (ip), vehicle: Klucel (hydroxypropylcellulose) (HPC)
  T/C: 100 % of control
dose: 100.0 mg/kg/injection, schedule: Q04DX003 (ip), vehicle: Klucel (hydroxypropylcellulose) (HPC)
  T/C: 100 % of control
dose: 200.0 mg/kg/injection, schedule: Q01DX009 (ip), vehicle: Klucel (hydroxypropylcellulose) (HPC)
  T/C: 118 % of control
dose: 200.0 mg/kg/injection, schedule: Q04DX003 (ip), vehicle: Klucel (hydroxypropylcellulose) (HPC)
  T/C: 95 % of control
dose: 400.0 mg/kg/injection, schedule: Q01DX009 (ip), vehicle: Klucel (hydroxypropylcellulose) (HPC)
  T/C: 100 % of control
dose: 400.0 mg/kg/injection, schedule: Q04DX003 (ip), vehicle: Klucel (hydroxypropylcellulose) (HPC)
  T/C: 109 % of control

## C/C(=N\NC(=S)N(C)C)c1ccccn1
dose: 1.56 mg/kg/injection, schedule: Q01DX009 (ip), vehicle: saline with Tween-80
  T/C: 105 % of control
[4]
  T/C: 100 % of control

## C[CH2][Ge]([CH2]C)[CH2]/C=C\[CH2][Ge]([CH2]C)[CH2]C
[5]
  T/C: 100 % of control
[6]
  T/C: 89 % of control
[2]
  T/C: 100 % of control

## COc1cc(C=O)c(C=O)cc1OC
[7]
  T/C: 110 % of control
[8]
  T/C: 106 % of control
[9]
  T/C: 106 % of control
[10]
  T/C: 97 % of control

## CCOC(=O)C1(CCOC)CCCCC1=O (stereo not drawn)
[2]
  T/C: 106 % of control
[1]
  T/C: 117 % of control
[3]
  T/C: 115 % of control

## CCOCc1nc2nc(Cl)c(Cl)nc2[nH]1
[5]
  T/C: 89 % of control and 99 % of control
[6]
  T/C: 89 % of control and 100 % of control
[9]
  T/C: 100 % of control
[2]
  T/C: 86 % of control and 104 % of control and 105 % of control
[11]
  T/C: 98 % of control
[1]
  T/C: 100 % of control
[10]
  T/C: 98 % of control
[12]
  T/C: 89 % of control and 104 % of control

## Nc1nc(=S)c2[nH]c(=S)[nH]c2[nH]1
dose: 78.0 mg/kg/injection, schedule: Q04DX003 (ip), vehicle: saline with Tween-80
  T/C: 104 % of control
dose: 118.0 mg/kg/injection, schedule: Q04DX003 (ip), vehicle: saline with Tween-80
  T/C: 112 % of control
[13]
  T/C: 172 % of control
dose: 600.0 mg/kg/injection, schedule: Q04DX003 (ip), vehicle: saline with Tween-80
  T/C: 186 % of control

## O=C(Nc1cccc(Cl)c1)Nc1ccccc1Cl
[10]
  T/C: 97 % of control
[12]
  T/C: 108 % of control
[13]
  T/C: 91 % of control

## Cc1nc([N+](=O)[O-])cn1CCC#N
[10]
  T/C: 98 % of control
[12]
  T/C: 99 % of control
[13]
  T/C: 86 % of control

## C1OCN2CSCC12 (stereo not drawn)
dose: 100.0 mg/kg/injection, schedule: Q04DX002 (ip), vehicle: suspension in saline
  T/C: 110 % of control
dose: 600.0 mg/kg/injection, schedule: Q04DX002 (ip), vehicle: suspension in saline
  T/C: 117 % of control

## O=[N+]([O-])CC(O)C(O)C(O)C(O)CO (stereo not drawn)
[14]
  T/C: 95 % of control
[15]
  T/C: 104 % of control
[16]
  T/C: 100 % of control
[17]
  T/C: 100 % of control
dose: 400.0 mg/kg/injection, schedule: Q01DX009 (ip), vehicle: saline
  T/C: 100 % of control
[18]
  T/C: 104 % of control

## CCOC(=O)CC/C(=C/c1ccccc1)[N+](=O)[O-]
[9]
  T/C: 110 % of control
[11]
  T/C: 106 % of control
[10]
  T/C: 119 % of control

## CC1(C(N)=O)OCCO1
[15]
  T/C: 100 % of control
[17]
  T/C: 95 % of control
[18]
  T/C: 95 % of control

## CC(=N\O)/C(C)=N/O.CC(=N\O)/C(C)=N/O.[Cl][Rh][Cl]
dose: 25.0 mg/kg/injection, schedule: Q01DX009 (ip), vehicle: saline
  T/C: 94 % of control
dose: 50.0 mg/kg/injection, schedule: Q01DX009 (ip), vehicle: saline
  T/C: 119 % of control
[14]
  T/C: 95 % of control and 119 % of control
[16]
  T/C: 100 % of control

## O=[N+]([O-])c1ccccc1SNc1ccc(NSc2ccccc2[N+](=O)[O-])cc1
dose: 3.13 mg/kg/injection, schedule: Q01DX001 (ip), vehicle: saline with Tween-80
  T/C: 104 % of control
dose: 6.25 mg/kg/injection, schedule: Q01DX001 (ip), vehicle: saline with Tween-80
  T/C: 109 % of control
dose: 12.5 mg/kg/injection, schedule: Q01DX001 (ip), vehicle: saline with Tween-80
  T/C: 95 % of control

## CC(C)(C)OC(=O)NOc1ccc([N+](=O)[O-])cc1[N+](=O)[O-]
[4]
  T/C: 117 % of control
[19]
  T/C: 90 % of control
[7]
  T/C: 100 % of control
[5]
  T/C: 106 % of control and 93 % of control
[8]
  T/C: 104 % of control
[6]
  T/C: 90 % of control and 96 % of control
[9]
  T/C: 97 % of control
[2]
  T/C: 93 % of control
[11]
  T/C: 97 % of control
[1]
  T/C: 100 % of control

## NC(=S)N=Nc1ccc(O)c2c(O)ccc(O)c12
dose: 6.3 mg/kg/injection, schedule: Q01DX009 (ip), vehicle: water
  T/C: 96 % of control
dose: 12.5 mg/kg/injection, schedule: Q01DX009 (ip), vehicle: water
  T/C: 94 % of control
dose: 25.0 mg/kg/injection, schedule: Q01DX009 (ip), vehicle: water
  T/C: 92 % of control
dose: 50.0 mg/kg/injection, schedule: Q01DX009 (ip), vehicle: water
  T/C: 86 % of control

## ClCCN(CCCl)c1ccc(CNCCCNCc2ccc(N(CCCl)CCCl)cc2)cc1
dose: 2.5 mg/kg/injection, schedule: Q01DX009 (ip), vehicle: saline sonified
  T/C: 160 % of control
dose: 3.75 mg/kg/injection, schedule: Q01DX009 (ip), vehicle: saline sonified
  T/C: 170 % of control

## CC1CN(Cc2ccccc2O)CC(C)N1 (stereo not drawn)
dose: 6.25 mg/kg/injection, schedule: Q04DX003 (ip), vehicle: water
  T/C: 103 % of control
dose: 12.5 mg/kg/injection, schedule: Q04DX003 (ip), vehicle: water
  T/C: 103 % of control
dose: 25.0 mg/kg/injection, schedule: Q04DX003 (ip), vehicle: water
  T/C: 103 % of control
dose: 50.0 mg/kg/injection, schedule: Q04DX003 (ip), vehicle: water
  T/C: 109 % of control
dose: 100.0 mg/kg/injection, schedule: Q04DX003 (ip), vehicle: water
  T/C: 97 % of control

## COc1ccc(C(OC)C2CCCCC2N2CCCCC2)cc1 (stereo not drawn)
dose: 0.5 mg/kg/injection, schedule: Q01DX009 (ip), vehicle: Klucel (hydroxypropylcellulose) (HPC)
  T/C: 90 % of control
dose: 1.0 mg/kg/injection, schedule: Q01DX009 (ip), vehicle: Klucel (hydroxypropylcellulose) (HPC)
  T/C: 101 % of control
dose: 2.0 mg/kg/injection, schedule: Q01DX009 (ip), vehicle: Klucel (hydroxypropylcellulose) (HPC)
  T/C: 98 % of control

## O=C(CNC(=O)Nc1n[nH]c(=S)s1)N/N=C/c1ccccc1O
[2]
  T/C: 100 % of control
[1]
  T/C: 91 % of control
[3]
  T/C: 98 % of control

## CCCCNP(=O)(N1CC1CC)N1CC1CC (stereo not drawn)
[15]
  T/C: 122 % of control

## Cc1cc(C)c(CCl)cc1CCl
dose: 3.0 mg/kg/injection, schedule: Q01DX009 (ip), vehicle: saline with Tween-80
  T/C: 104 % of control
dose: 4.5 mg/kg/injection, schedule: Q01DX009 (ip), vehicle: saline with Tween-80
  T/C: 116 % of control
[19]
  T/C: 118 % of control
dose: 16.5 mg/kg/injection, schedule: Q01DX009 (ip), vehicle: saline with Tween-80
  T/C: 150 % of control
dose: 37.5 mg/kg/injection, schedule: Q01DX009 (ip), vehicle: saline with Tween-80
  T/C: 120 % of control

## C1OC1CO[C@@H]1CO[C@H]2[C@@H]1OC[C@H]2OCC1CO1 (stereo partly drawn)
dose: 264.0 mg/kg/injection, schedule: Q04DX003 (ip), vehicle: saline with Tween-80
  T/C: 183 % of control
[13]
  T/C: 195 % of control

## COc1cc(Nc2c3ccccc3nc3ccccc23)cc(OC)c1OC
[5]
  T/C: 97 % of control and 99 % of control
[6]
  T/C: 112 % of control
[2]
  T/C: 109 % of control and 115 % of control

From PubChem BioAssay AID328 (DTP/NCI, 2004)
